Assays:
sows = test: Example III Series 2: embryos and accessory sperm after insemination of sows; type: in vivo, pig
Description: Series 2: Batches of sows (parity 2-13) received hCG at 84 hours after weaning. The sows were inseminated at 16 hours after hCG administration (on average 26 hours, ranging from 21-28 hours, before ovulation as observed by transrectal ultrasonography) or inseminated at 4 hours after ovulation. […] The sows were slaughtered at 115 (112-120) hours after ovulation. The embryos were flushed, examined morphologically, and the number of accessory sperm were counted.

boar spermatozoa [1] = test: Sperm viability in vitro (motility, acrosome morphology), Example I; type: cell-based, pig
Description: Aliquots of 80 μl of the PMN suspension (see, PMN isolation and preparation of PMNs) in TM or TM-s, with either intact or inactivated complement, were transferred to a 96-well polystyrene microtest plate. To each well, 20 μl of sperm suspension (see, preparation of semen samples) was added and the microtest plate was placed in a humidified incubator at 38° C. with 5% CO2 in air. […] The samples were incubated with gentle swirling on a test plate shaker. After 15, 30, 45, 60 or 90 min., samples were quantitatively transferred into tubes containing an equal volume of 40 mg ml^−1 heparin (Sigma) in PBS. The heparin facilitates dissociation of agglutinated PMNs. The samples were thoroughly mixed, left for 15 min., and mixed again. Subsamples of 75 μl were fixed by addition of 25 μl of 2% (v/v) glutaraldehyde (Fluka, Brunschwig chemie, Amsterdam, The Netherlands) in PBS. “Blank” samples, i.e., sperm without PMNs (80 μl TM-s mixed with 20 μl sperm suspension), were incubated in parallel to monitor sperm survival during the treatment. “Reference” samples, i.e., frozen-thawed (killed) semen, were incubated in parallel with the PMNs as a reference for the phagocytotic activity of the PMNs. The frozen-thawed semen was taken from a large stock of semen from one ejaculate and washed 3 times in PBS prior to use.
For evaluation of phagocytosis, wet mounts of the fixed samples were examined with a combination of phase-contrast and fluorescence microscopy (Olympus BH2, Tokyo, Japan) at 400× magnification. The mounts enabled observation and counting of fluorescently labeled spermatozoa inside and outside the phagocytes. By focusing at different levels in the mount, spermatozoa that were located above or below the PMN could be distinguished from those that were phagocytosed. […] Two hundred spermatozoa were evaluated and classified as inside or outside the PMN (i.e., phagocytosed or not phagocytosed). The same fixed mounts were used to assess the acrosome morphology of the non-phagocytosed spermatozoa at the moment of fixation. One hundred cells were classified using phase-contrast microscopy at 400× magnification, as NAR (normal apical ridge), NAR' (slightly altered normal apical ridge), DAR (damaged apical ridge), MAR (missing apical ridge) and LAC (loose acrosomal cap), as described by Pursel et al. (Pursel V G, Schulman L L and Johnson L A, 1978, Distribution and morphology of fresh and frozen-thawed sperm in the reproductive tract of gilts after insemination Biology of Reproduction 19 69-76.)

boar spermatozoa [2] = test: as above; type: cell-based, pig; remark: listed apart in the source
[3] = Exp. 1, after adding active compound and pre-incubation 30 min. at 38° C.
[4] = Exp. 1, blank samples without PMN, phagocytosis time 60 min.
[5] = Exp. 1, blank samples without PMN, preincubated 30 min. at 38° C., phagocytosis time 30 min.
[6] = Exp. 2, 0.2 mM, after adding active compound, without pre-incubation
[7] = Exp. 2, 0.2 mM, blank samples without PMN, without pre-incubation, phagocytosis time 30 min.
[8] = Exp. 2, 0.5 mM, after adding active compound, after pre-incubation
[9] = Exp. 2, 0.5 mM, after adding active compound, without pre-incubation
[10] = Exp. 2, 0.5 mM, blank samples without PMN, after pre-incubation
[11] = Exp. 2, 0.5 mM, blank samples without PMN, without pre-incubation, phagocytosis time 30 min.
[12] = Exp. 2, 1 mM, after adding active compound, after pre-incubation
[13] = Exp. 2, 1 mM, after adding active compound, without pre-incubation
[14] = Exp. 2, 1 mM, blank samples without PMN, after pre-incubation
[15] = Exp. 2, 1 mM, blank samples without PMN, without pre-incubation, phagocytosis time 30 min.
[16] = Exp. 2, 2 mM, after adding active compound, after pre-incubation
[17] = Exp. 2, 2 mM, after adding active compound, without pre-incubation
[18] = Exp. 2, 2 mM, blank samples without PMN, after pre-incubation
[19] = Exp. 2, 2 mM, blank samples without PMN, without pre-incubation, phagocytosis time 30 min.
[20] = Exp. 3, 1 mM, after pre-incubation of sperm 30 min. at 38° C.
[21] = Exp. 3, 1 caffeine, blank samples without PMN, after pre-incubation at 38° C., phagocytosis time 30 min.

Cn1c(=O)c2c(ncn2C)n(C)c1=O [caffeine, 1,3,7-Trimethylxanthine]
% fertilized oocytes, in words (sows): tended to be higher | % DAR (boar spermatozoa [1]; [3]): 30% | % LAC (boar spermatozoa [1]; [3]): 15% | % MAR (boar spermatozoa [1]; [3]): 02% | % NAR (boar spermatozoa [1]; [3]): 53% | % LAC (boar spermatozoa [1]; [4]): 22% | % MAR (second value of NAR-MAR-MAR-LAC) (boar spermatozoa [1]; [4]): 36% | % MAR (third value of NAR-MAR-MAR-LAC) (boar spermatozoa [1]; [4]): 05% | % NAR (boar spermatozoa [1]; [4]): 37% | % LAC (boar spermatozoa [1]; [5]): 21% | % MAR (second value of NAR-MAR-MAR-LAC) (boar spermatozoa [1]; [5]): 39% | % MAR (third value of NAR-MAR-MAR-LAC) (boar spermatozoa [1]; [5]): 03% | % NAR (boar spermatozoa [1]; [5]): 37% | % DAR (boar spermatozoa [1]; [6]): 12% | % LAC (boar spermatozoa [1]; [6]): 03% | % MAR (boar spermatozoa [1]; [6]): 01% | % motile sperm (boar spermatozoa [1]; [6]): 80% | % DAR (boar spermatozoa [1]; [7]): 12% | % LAC (boar spermatozoa [1]; [7]): 03% | % MAR (boar spermatozoa [1]; [7]): 00% | % NAR (boar spermatozoa [1]; [7]): 85% | % DAR (boar spermatozoa [1]; [8]): 14% | % LAC (boar spermatozoa [1]; [8]): 02% | % MAR (boar spermatozoa [1]; [8]): 01% | % NAR (boar spermatozoa [1]; [8]): 83% | % motile sperm (boar spermatozoa [1]; [8]): 80% | % DAR (boar spermatozoa [1]; [9]): 12% | % LAC (boar spermatozoa [1]; [9]): 02% | % MAR (boar spermatozoa [1]; [9]): 02% | % NAR (boar spermatozoa [1]; [9]): 84% | % motile sperm (boar spermatozoa [1]; [9]): 80% | % DAR (boar spermatozoa [1]; [10]): 12% | % LAC (boar spermatozoa [1]; [10]): 02% | % MAR (boar spermatozoa [1]; [10]): 01% | % NAR (boar spermatozoa [1]; [10]): 85% | % DAR (boar spermatozoa [1]; [11]): 10% | % LAC (boar spermatozoa [1]; [11]): 03% | % MAR (boar spermatozoa [1]; [11]): 00% | % NAR (boar spermatozoa [1]; [11]): 87% | % DAR (boar spermatozoa [1]; [12]): 16% | % LAC (boar spermatozoa [1]; [12]): 06% | % MAR (boar spermatozoa [1]; [12]): 01% | % NAR (boar spermatozoa [1]; [12]): 77% | % motile sperm (boar spermatozoa [1]; [12]): 80% | % DAR (boar spermatozoa [1]; [13]): 09% | % LAC (boar spermatozoa [1]; [13]): 03% | % MAR (boar spermatozoa [1]; [13]): 01% | % NAR (boar spermatozoa [1]; [13]): 87% | % motile sperm (boar spermatozoa [1]; [13]): 80% | % DAR (boar spermatozoa [1]; [14]): 21% | % LAC (boar spermatozoa [1]; [14]): 06% | % MAR (boar spermatozoa [1]; [14]): 01% | % NAR (boar spermatozoa [1]; [14]): 72% | % DAR (boar spermatozoa [1]; [15]): 10% | % LAC (boar spermatozoa [1]; [15]): 05% | % MAR (boar spermatozoa [1]; [15]): 00% | % NAR (boar spermatozoa [1]; [15]): 85% | % DAR (boar spermatozoa [1]; [16]): 20% | % LAC (boar spermatozoa [1]; [16]): 05% | % MAR (boar spermatozoa [1]; [16]): 02% | % NAR (boar spermatozoa [1]; [16]): 73% | % motile sperm (boar spermatozoa [1]; [16]): 80% | % DAR (boar spermatozoa [1]; [17]): 13% | % LAC (boar spermatozoa [1]; [17]): 04% | % MAR (boar spermatozoa [1]; [17]): 01% | % NAR (boar spermatozoa [1]; [17]): 82% | % motile sperm (boar spermatozoa [1]; [17]): 80% | % DAR (boar spermatozoa [1]; [18]): 24% | % LAC (boar spermatozoa [1]; [18]): 05% | % MAR (boar spermatozoa [1]; [18]): 01% | % NAR (boar spermatozoa [1]; [18]): 70% | % DAR (boar spermatozoa [1]; [19]): 12% | % LAC (boar spermatozoa [1]; [19]): 08% | % MAR (boar spermatozoa [1]; [19]): 01% | % NAR (boar spermatozoa [1]; [19]): 79% | % DAR (boar spermatozoa [1]; [20]): 24% | % LAC (boar spermatozoa [1]; [20]): 08% | % MAR (boar spermatozoa [1]; [20]): 01% | % NAR (boar spermatozoa [1]; [20]): 67% | % DAR (boar spermatozoa [1]; [21]): 24% | % LAC (boar spermatozoa [1]; [21]): 08% | % MAR (boar spermatozoa [1]; [21]): 02% | % NAR (boar spermatozoa [1]; [21]): 66% | % motile sperm (boar spermatozoa [2]; [3]): 60% | % NAR (boar spermatozoa [2]; [6]): 84% | % motile sperm (boar spermatozoa [2]; [20]): 65%

Source: patent US6890708B2, “Method for improving the quality of sperm for artificial insemination of animals” (priority 2000, dated 2005)
